Measured values reported in patent publication US7531195B2, “Schisandrin B preparation” (priority 2005, dated 2009).
Marks after values point to notes of the source that are not given here.

Columns and labels:
Myocardial Mitochondria [1] = test: Myocardial mitochondrial ATP generation capacity, young male and female rats; format: in vivo, rat; conditions: 35 days
Method: (§1) Male/Female adult Sprague-Dawley rats (˜10 weeks old) were maintained under a 12-h dark/light cycle at about 22° C. and allowed food and water ad libitum. Animals were randomly divided into groups, with at least 5 animals in each. In the pretreatment groups, rats were treated intragastrically with (−) Schisandrin B at a daily dose of 1 or 10 mg/kg for 35 days. Control animals received oil only (10 ml/kg). Twenty-four hours following the last dosing, hearts were isolated from control or drug-pretreated rats and then subjected to Langendorff perfusion as described below.
(§2) Myocardial tissue samples were rinsed with ice-cold isotonic buffer (50 mM Tris, 0.32 M sucrose, 1 mM Na2EDTA, 0.2 mg/ml soybean trypsin inhibitor, 0.2 mg/ml bacitracine, 0.16 mg/ml benzamidine). Tissue homogenates were prepared by homogenizing 0.8 g of myocardial tissue in 8 ml ice-cold isotonic buffer and the homogenates were used for the preparation of mitochondrial fractions by differential centrifugation, as described in Chiu and Ko (2004). The mitochondrial pellets were resuspended in 1.5 ml of isotonic buffer containing 150 μl of 2 mg/ml soybean trypsin inhibitor and constituted the mitochondrial fractions.
(§3) Myocardial mitochondrial ATP generation capacity was measured by incubating 200 μl of nucleus-free tissue homogenate with 200 μl of substrate solution (containing 100 mM glutamate and 34 mM malate) and 20 μl ADP (2.3 mM) for 10 min at 37° C., and the ATP level were measured using an assay kit from Sigma Chemical Co. (St. Louis, Mo., USA). LDH activity was spectrophotometrically measured as described (Yim and Ko 1999).

Myocardial Mitochondria [2] = test: Myocardial mitochondrial ATP generation capacity, old male and female rats; format: in vivo, rat; conditions: liposome-encapsulated in drinking water, 10 mg/kg daily, 35 days
Method: Aged male and female rats (˜12 months old) were administered with liposome-encapsulated (−) Schisandrin B in drinking water for 35 days, with the daily dose estimated to be 10 mg/kg.
Male/Female adult Sprague-Dawley rats (˜12 months old) were maintained under a 12-h dark/light cycle at about 22° C. and allowed food and water ad libitum. Animals were randomly divided into groups, with at least 5 animals in each. In the pretreatment groups, rats were treated with liposome-encapsulated (−) Schisandrin B in drinking water for 35 days, with the estimated daily dose of 10 mg/kg. Control animals received empty liposomes-containing drinking water. Twenty-four hours following the last dosing, hearts were isolated from control or drug-pretreated rats and then subjected to Langendorff perfusion as described below.
as §2, §3

[3] = tested on: mitochondria of brain, heart, liver and skeletal muscle; test: Mitochondrial antioxidant status in various tissues of young female rats; format: in vivo, rat; conditions: (−) Sch B, α-LA, α-Toc at daily 10, 5 and 70 mg/kg respectively, 15 days
Method: The dosages were determined with reference to the equivalent amount of crude herb prescribed for human or the daily recommended intake in health supplements. The control animals received olive oil only. Twenty-four hours after the last dose, the pentobarbital-anesthetized animals were sacrificed by cardiac excision, and brain. heart, liver and skeletal muscle tissues were obtained. Tissue samples (brain, heart, liver, and skeletal muscle) were rinsed with ice-cold isotonic buffer (50 mM Tris, 0.32 M sucrose, 1 mM Na2EDTA, 0.2 mg/ml soybean trypsin inhibitor, 0.2 mg/ml bacitracine, 0.16 mg/ml benzamidine). Tissue homogenates were prepared by homogenizing 0.8 g of myocardial tissue in 8 ml ice-cold isotonic buffer and the homogenates were used for the preparation of mitochondrial fractions by differential centrifugation, as described in Chiu and Ko (2004). The mitochondrial pellets were resuspended in 1.5 ml of isotonic buffer containing 150 μl of 2 mg/ml soybean trypsin inhibitor and constituted the mitochondrial fractions. […] (St. Louis, Mo., USA). […] Aliquots (400 μl) of mitochondrial fractions were mixed with 933 μl Triton X-100 solution (0.3%, v/v, in isotonic buffer) and sonicated for 2 min on ice. The mixtures were then subjected to measurements of mitochondrial glutathione reductase (GRD), Se-glutathione peroxidase (GPX) and glutathione S-transferases (GST) activities by spectrophotometric methods, as described in Chiu et al. (2002).

[4] = tested on: Isolated-Perfused Rat Heart; test: Myocardial ischemia-reperfusion injury (LDH leakage), isolated-perfused heart of young rats; format: in vivo; conditions: 35 days
Method: as §1
The heart was excised quickly and immediately immersed in ice-cold and heparinized (50 unit/ml) saline. The aorta was cannulated and then transferred to a warm and moistured chamber of the perfusion apparatus. The heart was retrogradely perfused according to Langendorff method as described (Yim and Ko 1999).
Coronary effluent was collected in 1-min fractions at increasing time intervals during the course of equilibration and reperfusion. The fractions were immediately put on ice until assay for lactate dehydrogenase (LDH) activity. The extent of LDH leakage during the reperfusion period, an indirect index of myocardial injury, was estimated by computing the area under the curve of the graph plotting the percent LDH activity (with respect to the mean pre-ischemic value measured during the equilibration period) against the reperfusion time (1-20 min), as described (Yim and Ko 1999). Immediately after the I-R procedure, heart ventricular tissue samples were obtained for biochemical analysis.

[5] = female rats, 1 mg/kg daily oral
[6] = female rats, 10 mg/kg daily oral

## COc1cc2c(c(OC)c1OC)-c1c(cc3c(c1OC)OCO3)CC(C)C(C)C2 (single isomer, unassigned; (-)) [(−) Sch B, (−) Schisandrin B]
Myocardial Mitochondria [1]; [5]
  ATP Generation, percent increase vs untreated control: (26%)
  ATP generation: 4.11 ± 0.19^b μmol/min/mg protein
Myocardial Mitochondria [1]; [6]
  ATP Generation, percent increase vs untreated control: (78%)
  ATP generation: 5.79 ± 0.37^b μmol/min/mg protein
Myocardial Mitochondria [1]; male rats, 1 mg/kg daily oral
  ATP Generation, percent increase vs untreated control: (99%)
Myocardial Mitochondria [1]; male rats, 10 mg/kg daily oral
  ATP Generation, percent increase vs untreated control: (141%)
  ATP generation: 6.74 ± 0.37^a μmol/min/mg protein
Myocardial Mitochondria [2]; old female rats (~12 months)
  ATP generation: 4.43 ± 0.10^b μmol/min/mg protein
Myocardial Mitochondria [2]; old female rats
  ATP Generation, percent increase vs untreated control: (48%)
Myocardial Mitochondria [2]; old male rats (~12 months)
  ATP generation: 3.75 ± 0.06 μmol/min/mg protein
Myocardial Mitochondria [2]; old male rats
  ATP Generation, percent increase vs untreated control: (11%)
[3]; BRAIN
  GPX: 163 ± 9 percent control
  GRD: 150 ± 9 percent control
  GSH: 147 ± 4 percent control
  GST: 143 ± 4 percent control
  α-Toc level: 141 ± 7 percent control
[3]; HEART
  GPX: 143 ± 7 percent control
  GRD: 163 ± 6 percent control
  GSH: 159 ± 2 percent control
  GST: 161 ± 5 percent control
  α-Toc level: 160 ± 13 percent control
[3]; LIVER
  GPX: 135 ± 3 percent control
  GRD: 161 ± 10 percent control
  GSH: 175 ± 5 percent control
  GST: 154 ± 4 percent control
  α-Toc level: 167 ± 14 percent control
[3]; SKELETAL MUSCLE
  GPX: 125 ± 5 percent control
  GRD: 166 ± 4 percent control
  GSH: 137 ± 1 percent control
  GST: 171 ± 10 percent control
  α-Toc level: 178 ± 13 percent control
[4]; I-R, female, 1 mg/kg daily
  LDH Leakage: 2861 ± 70.6^b AU
  LDH Leakage, percent protection vs unpretreated control: (31%)
[4]; I-R, female, 10 mg/kg daily
  LDH Leakage: 2023 ± 83.1^b AU
  LDH Leakage, percent protection vs unpretreated control: (60%)
[4]; I-R, male, 1 mg/kg daily
  LDH Leakage: 3638 ± 125^a AU
  LDH Leakage, percent protection vs unpretreated control: (37%)
[4]; I-R, male, 10 mg/kg daily
  LDH Leakage: 2775 ± 55.8^a AU
  LDH Leakage, percent protection vs unpretreated control: (57%)
[4]; NON-I-R, female, 1 mg/kg daily
  LDH Leakage: 776 ± 22.1 AU
[4]; NON-I-R, female, 10 mg/kg daily
  LDH Leakage: 813 ± 14.0 AU
[4]; NON-I-R, male, 1 mg/kg daily
  LDH Leakage: 804 ± 18.0 AU
[4]; NON-I-R, male, 10 mg/kg daily
  LDH Leakage: 820 ± 13.8 AU
